Source: the supplement of paper PMC10627819
Converted amounts (≈) assume the structure as drawn.

How the values were obtained:
B. subtilis 168 [1] = assay: fitness (endpoint OD595 vs no drug) (fraction); higher = more growth
Summary of the method: (§1)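 In 384-well plates at 37 °C, cultures began at OD595 0.01 in 30 µl, with 55 µl used for S. pneumoniae. OD595 readings every 30 min for 14 h were corrected by the first reading. Fitness divides the stationary-phase transition optical density by the robust mean of no-drug control wells. The result is capped at 1.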

S. aureus Newman [2] = assay: as above
Summary of the method: as §1

S. aureus DSM 20231 [3] = assay: as above
Summary of the method: as §1

S. pneumoniae D39V [4] = assay: as above
Summary of the method: as §1

B. subtilis 168 [5] = assay: Bliss interaction score (quartile over a dose matrix) (fitness difference); higher = more antagonism (negative = synergy)
Summary of the method: (§2)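 The Bliss score takes observed fitness and subtracts the expected fitness, calculated as a product of single-drug fitness values. Those single-drug values were inferred from the combination data. Fitness is OD595 at entry into stationary phase divided by the plate's robust no-drug mean, capped at 1, and the score is summarised by quartiles across technical, biological and donor/recipient replicates.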

S. aureus Newman [6] = assay: as above
Summary of the method: as §2

S. aureus DSM 20231 [7] = assay: as above
Summary of the method: as §2

S. pneumoniae D39V [8] = assay: as above
Summary of the method: as §2

B. subtilis 168 [9] = test system: B. subtilis 168
S. aureus Newman [10] = test system: S. aureus Newman
S. aureus DSM 20231 [11] = test system: S. aureus DSM 20231
S. pneumoniae D39V [12] = test system: S. pneumoniae D39V
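Wherever Bliss interaction score (quartile over a dose matrix) is given: first quartile when negative (synergy) and third quartile when positive (antagonism).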

COc1ccc(C[C@H](N)C(=O)N[C@H]2[C@@H](O)[C@H](n3cnc4c(N(C)C)ncnc43)O[C@@H]2CO)cc1 [Puromycin] + CN(N=O)C(=O)N[C@@H](C=O)[C@@H](O)[C@H](O)[C@H](O)CO [Streptozotocin]
fitness, one replicate
Conditions | partner 0.15 µg/mL | partner 0.3 µg/mL | partner 0.6 µg/mL
B. subtilis 168 [1], first compound 0.39 µg/mL | 0.999 | 0.978 | ≥ 1
B. subtilis 168 [1], first compound 0.78 µg/mL | ≥ 1 | ≥ 1 | 0.981
B. subtilis 168 [1], first compound 1.56 µg/mL | ≥ 1 | 0.925 | 0.938
S. aureus DSM 20231 [3], first compound 3.12 µg/mL | 0.907 | 0.853 | 0.806
S. aureus DSM 20231 [3], first compound 6.24 µg/mL | 0.706 | 0.6 | 0.549

fitness
Conditions | first compound 0.39 µg/mL | first compound 0.78 µg/mL | first compound 1 µg/mL | first compound 1.56 µg/mL | first compound 2 µg/mL | first compound 4 µg/mL
S. aureus DSM 20231 [3], partner 0.15 µg/mL | 0.894 | 0.887 | – | 0.937 | – | –
S. aureus DSM 20231 [3], partner 0.3 µg/mL | 0.863 | 0.857 | – | 0.812 | – | –
S. aureus DSM 20231 [3], partner 0.6 µg/mL | 0.714 | 0.772 | – | 0.705 | – | –
S. aureus Newman [2], partner 0.15 µg/mL | 0.912 | 0.835 | – | 0.871 | – | –
S. aureus Newman [2], partner 0.3 µg/mL | 0.737 | 0.7 | – | 0.706 | – | –
S. aureus Newman [2], partner 0.6 µg/mL | 0.595 | 0.534 | – | 0.559 | – | –
S. pneumoniae D39V [4], partner 1.2 µg/mL | – | – | 0.913 | – | 0.942 | 0.8
S. pneumoniae D39V [4], partner 2.4 µg/mL | – | – | 0.943 | – | 0.935 | 0.806
S. pneumoniae D39V [4], partner 4.8 µg/mL | – | – | 0.969 | – | 0.926 | 0.749

Conditions | Bliss interaction score
B. subtilis 168 [5] | 0.0705
S. aureus DSM 20231 [7] | 0.0762
S. aureus Newman [6] | 0.0523
S. pneumoniae D39V [8] | 0.0919

COc1ccc(C[C@H](N)C(=O)N[C@H]2[C@@H](O)[C@H](n3cnc4c(N(C)C)ncnc43)O[C@@H]2CO)cc1 [Puromycin] + CN[C@@H]1[C@H](O)[C@H](NC)[C@H]2O[C@@]3(O)C(=O)C[C@@H](C)O[C@H]3O[C@@H]2[C@H]1O [Spectinomycin]
fitness
Conditions | first compound 0.39 µg/mL | first compound 0.78 µg/mL | first compound 1 µg/mL | first compound 1.56 µg/mL | first compound 2 µg/mL | first compound 4 µg/mL
B. subtilis 168 [1], partner 2 µg/mL | 0.951 | 0.94 | – | 0.979 | – | –
B. subtilis 168 [1], partner 4 µg/mL | 0.948 | 0.952 | – | 0.963 | – | –
B. subtilis 168 [1], partner 8 µg/mL | 0.859 | 0.881 | – | 0.848 | – | –
S. aureus DSM 20231 [3], partner 4 µg/mL | 0.959 | 0.943 | – | 0.965 | – | –
S. aureus DSM 20231 [3], partner 8 µg/mL | 0.957 | 0.998 | – | 0.956 | – | –
S. aureus DSM 20231 [3], partner 16 µg/mL | 0.943 | 0.884 | – | 0.888 | – | –
S. aureus Newman [2], partner 4 µg/mL | 0.912 | 0.922 | – | 0.964 | – | –
S. aureus Newman [2], partner 8 µg/mL | 0.962 | 0.95 | – | 0.937 | – | –
S. aureus Newman [2], partner 16 µg/mL | 0.914 | 0.904 | – | 0.873 | – | –
S. pneumoniae D39V [4], partner 4 µg/mL | – | – | 0.931 | – | 0.951 | 0.772
S. pneumoniae D39V [4], partner 8 µg/mL | – | – | 0.877 | – | 0.892 | 0.728

one replicate
Conditions | fitness
S. aureus DSM 20231 [3], first compound 0.39 µg/mL, partner 32 µg/mL | 0.741
S. aureus DSM 20231 [3], first compound 0.39 µg/mL, partner 64 µg/mL | 0.11
S. aureus DSM 20231 [3], first compound 0.78 µg/mL, partner 32 µg/mL | 0.802
S. aureus DSM 20231 [3], first compound 0.78 µg/mL, partner 64 µg/mL | 0.172
S. aureus DSM 20231 [3], first compound 1.56 µg/mL, partner 32 µg/mL | 0.757
S. aureus DSM 20231 [3], first compound 1.56 µg/mL, partner 64 µg/mL | 0.142
S. aureus DSM 20231 [3], first compound 3.12 µg/mL, partner 4 µg/mL | 0.923
S. aureus DSM 20231 [3], first compound 3.12 µg/mL, partner 8 µg/mL | 0.948
S. aureus DSM 20231 [3], first compound 3.12 µg/mL, partner 16 µg/mL | 0.794
S. aureus DSM 20231 [3], first compound 6.24 µg/mL, partner 4 µg/mL | 0.629
S. aureus DSM 20231 [3], first compound 6.24 µg/mL, partner 8 µg/mL | 0.347
S. aureus DSM 20231 [3], first compound 6.24 µg/mL, partner 16 µg/mL | 0.183
S. aureus Newman [2], first compound 0.39 µg/mL, partner 32 µg/mL | 0.664
S. aureus Newman [2], first compound 0.39 µg/mL, partner 64 µg/mL | 0.15
S. aureus Newman [2], first compound 0.78 µg/mL, partner 32 µg/mL | 0.618
S. aureus Newman [2], first compound 0.78 µg/mL, partner 64 µg/mL | 0.0783
S. aureus Newman [2], first compound 1.56 µg/mL, partner 32 µg/mL | 0.569
S. aureus Newman [2], first compound 1.56 µg/mL, partner 64 µg/mL | 0.0656
S. pneumoniae D39V [4], first compound 1 µg/mL, partner 16 µg/mL | 0.867
S. pneumoniae D39V [4], first compound 2 µg/mL, partner 16 µg/mL | 0.863
S. pneumoniae D39V [4], first compound 4 µg/mL, partner 16 µg/mL | 0.613

Conditions | Bliss interaction score
B. subtilis 168 [5] | 0.0392
S. aureus DSM 20231 [7] | 0.0575
S. aureus Newman [6] | 0.0745
S. pneumoniae D39V [8] | 0.0718

COc1ccc(C[C@H](N)C(=O)N[C@H]2[C@@H](O)[C@H](n3cnc4c(N(C)C)ncnc43)O[C@@H]2CO)cc1 [Puromycin] + Cc1cc(NS(=O)(=O)c2ccc(N)cc2)no1 [Sulfamethoxazol]
one replicate
Conditions | fitness
B. subtilis 168 [1], first compound 0.39 µg/mL, partner 0.5 µg/mL | ≥ 1
B. subtilis 168 [1], first compound 0.78 µg/mL, partner 0.5 µg/mL | 0.996
B. subtilis 168 [1], first compound 1.56 µg/mL, partner 0.5 µg/mL | 0.992
S. aureus DSM 20231 [3], first compound 3.12 µg/mL, partner 1 µg/mL | 0.884
S. aureus DSM 20231 [3], first compound 3.12 µg/mL, partner 2 µg/mL | 0.864
S. aureus DSM 20231 [3], first compound 3.12 µg/mL, partner 4 µg/mL | 0.969
S. aureus DSM 20231 [3], first compound 6.24 µg/mL, partner 1 µg/mL | 0.722
S. aureus DSM 20231 [3], first compound 6.24 µg/mL, partner 2 µg/mL | 0.706
S. aureus DSM 20231 [3], first compound 6.24 µg/mL, partner 4 µg/mL | 0.736
S. aureus Newman [2], first compound 0.39 µg/mL, partner 8 µg/mL | 0.916
S. aureus Newman [2], first compound 0.78 µg/mL, partner 8 µg/mL | 0.931
S. aureus Newman [2], first compound 1.56 µg/mL, partner 8 µg/mL | 0.983

fitness
Conditions | partner 1 µg/mL | partner 2 µg/mL | partner 4 µg/mL
B. subtilis 168 [1], first compound 0.39 µg/mL | 0.934 | 0.947 | 0.891
B. subtilis 168 [1], first compound 0.78 µg/mL | 0.921 | 0.863 | 0.949
B. subtilis 168 [1], first compound 1.56 µg/mL | 0.968 | 0.888 | 0.941
S. aureus DSM 20231 [3], first compound 0.39 µg/mL | 0.998 | 0.996 | ≥ 1
S. aureus DSM 20231 [3], first compound 0.78 µg/mL | 0.988 | ≥ 1 | 0.995
S. aureus DSM 20231 [3], first compound 1.56 µg/mL | 0.952 | 0.992 | 0.961
S. aureus Newman [2], first compound 0.78 µg/mL | 0.996 | 0.943 | 0.958
S. aureus Newman [2], first compound 1.56 µg/mL | 0.966 | 0.968 | ≥ 1
S. pneumoniae D39V [4], first compound 1 µg/mL | 0.945 | 0.934 | 0.961
S. pneumoniae D39V [4], first compound 2 µg/mL | 0.948 | 0.927 | 0.932
S. pneumoniae D39V [4], first compound 4 µg/mL | 0.799 | 0.807 | 0.947

Conditions | Bliss interaction score
B. subtilis 168 [5] | 0.0514
S. aureus DSM 20231 [7] | 0.0554
S. aureus Newman [6] | 0.0386
S. pneumoniae D39V [8] | 0.113

CN(C)c1cc(NC(=O)CNC(C)(C)C)c(O)c2c1C[C@H]1C[C@H]3[C@H](N(C)C)C(O)=C(C(N)=O)C(=O)[C@@]3(O)C(O)=C1C2=O [Tigecycline]
Conditions | fitness
B. subtilis 168 [1], 0.039 µg/mL | 0.953
B. subtilis 168 [1], 0.078 µg/mL | 0.95
B. subtilis 168 [1], 0.156 µg/mL | 0.933
S. aureus Newman [2], 0.039 µg/mL | 0.975
S. aureus Newman [2], 0.078 µg/mL | 0.959
S. aureus Newman [2], 0.156 µg/mL | 0.973
S. pneumoniae D39V [4], 0.325 µg/mL | 0.971
S. pneumoniae D39V [4], 0.65 µg/mL | 0.959
S. pneumoniae D39V [4], 1.3 µg/mL | 0.966
S. pneumoniae D39V [4], 2.6 µg/mL | 0.965

Conditions | MIC [µg/mL]
B. subtilis 168 [9] | 0.312 (≈ 0.533 µM)
S. aureus DSM 20231 [11] | 0.18 (≈ 0.307 µM)
S. aureus Newman [10] | 0.18 (≈ 0.307 µM)
S. pneumoniae D39V [12] | 3 (≈ 5.12 µM)
